Test results as given in PubChem BioAssay (NCI).
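The concentration for 50% growth inhibition is given as GI50. Definition used: TGI = concentration required for complete inhibition of growth.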

Columns and labels:
Experiment in all cases: DTP human tumour cell line panel, 384-well format
HOP-62 NSCLC = test system: HOP-62 NSCLC
PC-3 prostate = test system: PC-3 prostate
OVCAR-4 ovarian = test system: OVCAR-4 ovarian
SK-MEL-28 melanoma = test system: SK-MEL-28 melanoma
SW-620 colon = test system: SW-620 colon
MALME-3M melanoma = test system: MALME-3M melanoma
NCI-H322M lung = test system: NCI-H322M lung
HL-60(TB) leukemia = test system: HL-60(TB) leukemia
786-0 renal = test system: 786-0 renal
U251 glioblastoma = test system: U251 glioblastoma
OVCAR-3 ovarian = test system: OVCAR-3 ovarian
CAKI-1 renal = test system: CAKI-1 renal
HOP-92 NSCLC = test system: HOP-92 NSCLC
NCI-H23 lung = test system: NCI-H23 lung
SF-539 CNS = test system: SF-539 CNS
COLO 205 colon = test system: COLO 205 colon
A549 NSCLC = test system: A549 NSCLC
HCT-116 colon = test system: HCT-116 colon
RXF 393 renal = test system: RXF 393 renal
SK-MEL-2 melanoma = test system: SK-MEL-2 melanoma
HCT-15 colon = test system: HCT-15 colon
NCI-H226 lung = test system: NCI-H226 lung
MDA-MB-468 breast = test system: MDA-MB-468 breast
K-562 leukemia = test system: K-562 leukemia
MDA-MB-231 breast = test system: MDA-MB-231 breast
IGROV1 ovarian = test system: IGROV1 ovarian
UACC-257 melanoma = test system: UACC-257 melanoma
OVCAR-8 ovarian = test system: OVCAR-8 ovarian
SNB-19 CNS = test system: SNB-19 CNS
SNB-75 CNS = test system: SNB-75 CNS
A498 renal = test system: A498 renal
M14 melanoma = test system: M14 melanoma
BT-549 breast = test system: BT-549 breast
SN12C renal = test system: SN12C renal
MOLT-4 leukemia = test system: MOLT-4 leukemia
KM12 colon = test system: KM12 colon
HT29 colon = test system: HT29 colon
EKVX NSCLC = test system: EKVX NSCLC
UO-31 renal = test system: UO-31 renal
TK-10 renal = test system: TK-10 renal
SK-MEL-5 melanoma = test system: SK-MEL-5 melanoma
HS 578T breast = test system: HS 578T breast
NCI-H460 NSCLC = test system: NCI-H460 NSCLC
DU-145 prostate = test system: DU-145 prostate
SK-OV-3 ovarian = test system: SK-OV-3 ovarian
SR leukemia = test system: SR leukemia
ACHN renal = test system: ACHN renal
SF-295 CNS = test system: SF-295 CNS
UACC-62 melanoma = test system: UACC-62 melanoma
SF-268 CNS = test system: SF-268 CNS
MDA-MB-435 melanoma = test system: MDA-MB-435 melanoma
MCF7 breast = test system: MCF7 breast
NCI-H522 lung = test system: NCI-H522 lung
OVCAR-5 ovarian = test system: OVCAR-5 ovarian
T-47D breast = test system: T-47D breast

COc1cc2c(N3CCN(C(=O)Nc4ccc(OC(C)C)cc4)CC3)ncnc2cc1OCCCN1CCCCC1
GI50 (HOP-62 NSCLC): 7.62 µM | TGI (HOP-62 NSCLC): 21.1 µM | GI50 (PC-3 prostate): 10.8 µM | TGI (PC-3 prostate): 24 µM | GI50 (OVCAR-4 ovarian): 13.9 µM | TGI (OVCAR-4 ovarian): 30.5 µM | GI50 (SK-MEL-28 melanoma): 12.3 µM | TGI (SK-MEL-28 melanoma): 24.8 µM | GI50 (SW-620 colon): 10.9 µM | TGI (SW-620 colon): 23.1 µM | GI50 (MALME-3M melanoma): 5.03 µM | TGI (MALME-3M melanoma): 17.2 µM | GI50 (NCI-H322M lung): 12.1 µM | TGI (NCI-H322M lung): 32.7 µM | GI50 (HL-60(TB) leukemia): 15 µM | TGI (HL-60(TB) leukemia): 28.4 µM | GI50 ([…]-0 renal): 8.32 µM | TGI (786-0 renal): 20.7 µM | GI50 (U251 glioblastoma): 11 µM | TGI (U251 glioblastoma): 23.1 µM | GI50 (OVCAR-3 ovarian): 14.3 µM | TGI (OVCAR-3 ovarian): 28.2 µM | GI50 (CAKI-1 renal): 2.25 µM | TGI (CAKI-1 renal): 6.6 µM | GI50 (HOP-92 NSCLC): 9.13 µM | TGI (HOP-92 NSCLC): 21.3 µM | GI50 (NCI-H23 lung): 12 µM | TGI (NCI-H23 lung): 25.7 µM | GI50 (SF-539 CNS): 1.84 µM | TGI (SF-539 CNS): 16.4 µM | GI50 (COLO 205 colon): 12.1 µM | TGI (COLO 205 colon): 24.7 µM | GI50 (A549 NSCLC): 14.1 µM | TGI (A549 NSCLC): 29 µM | GI50 (HCT-116 colon): 9.38 µM | TGI (HCT-116 colon): 21.6 µM | GI50 (RXF 393 renal): 2.82 µM | TGI (RXF 393 renal): 9.78 µM | GI50 (SK-MEL-2 melanoma): 3.78 µM | TGI (SK-MEL-2 melanoma): 12.8 µM | GI50 (HCT-15 colon): 15.8 µM | TGI (HCT-15 colon): 29.5 µM | GI50 (NCI-H226 lung): 7.66 µM | TGI (NCI-H226 lung): 21.5 µM | GI50 (MDA-MB-468 breast): 3.91 µM | TGI (MDA-MB-468 breast): 14.5 µM | GI50 (K-562 leukemia): 3.31 µM | TGI (K-562 leukemia): 11.5 µM | GI50 (MDA-MB-231 breast): 13.6 µM | TGI (MDA-MB-231 breast): 31.4 µM | GI50 (IGROV1 ovarian): 13.4 µM | TGI (IGROV1 ovarian): 26.9 µM | GI50 (UACC-257 melanoma): 1.99 µM | TGI (UACC-257 melanoma): 4.04 µM | GI50 (OVCAR-8 ovarian): 11.3 µM | TGI (OVCAR-8 ovarian): 32.3 µM | GI50 (SNB-19 CNS): 16 µM | TGI (SNB-19 CNS): 41.6 µM | GI50 (SNB-75 CNS): 9.87 µM | TGI (SNB-75 CNS): 21.6 µM | GI50 (A498 renal): 5.09 µM | TGI (A498 renal): 17.3 µM | GI50 (M14 melanoma): 12.3 µM | TGI (M14 melanoma): 24.9 µM | GI50 (BT-549 breast): 8.6 µM | TGI (BT-549 breast): 20.8 µM | GI50 (SN12C renal): 13.1 µM | TGI (SN12C renal): 26.2 µM | GI50 (MOLT-4 leukemia): 2.61 µM | TGI (MOLT-4 leukemia): 5.95 µM | GI50 (KM12 colon): 12.3 µM | TGI (KM12 colon): 25.1 µM | GI50 (HT29 colon): 3.24 µM | TGI (HT29 colon): 11.3 µM | GI50 (EKVX NSCLC): 5.21 µM | TGI (EKVX NSCLC): 19.5 µM | GI50 (UO-31 renal): 16.4 µM | TGI (UO-31 renal): 30.1 µM | GI50 (TK-10 renal): 10.8 µM | TGI (TK-10 renal): 25.2 µM | GI50 (SK-MEL-5 melanoma): 9 µM | TGI (SK-MEL-5 melanoma): 21.1 µM | GI50 (HS 578T breast): 4.87 µM | TGI (HS 578T breast): 17.9 µM | GI50 (NCI-H460 NSCLC): 2.48 µM | TGI (NCI-H460 NSCLC): 12.2 µM | GI50 (DU-145 prostate): 12.5 µM | TGI (DU-145 prostate): 26.3 µM | GI50 (SK-OV-3 ovarian): 12.5 µM | TGI (SK-OV-3 ovarian): 25.2 µM | GI50 (SR leukemia): 1.93 µM | TGI (SR leukemia): 3.54 µM | GI50 (ACHN renal): 9.76 µM | TGI (ACHN renal): 22.6 µM | GI50 (SF-295 CNS): 11.5 µM | TGI (SF-295 CNS): 23.8 µM | GI50 (UACC-62 melanoma): 7.65 µM | TGI (UACC-62 melanoma): 20.6 µM | GI50 (SF-268 CNS): 8.64 µM | TGI (SF-268 CNS): 21.1 µM | GI50 (MDA-MB-435 melanoma): 13 µM | TGI (MDA-MB-435 melanoma): 25.9 µM | GI50 (MCF7 breast): 3.18 µM | TGI (MCF7 breast): 15.1 µM | GI50 (NCI-H522 lung): 12.5 µM | TGI (NCI-H522 lung): 25 µM | GI50 (OVCAR-5 ovarian): 13.1 µM | TGI (OVCAR-5 ovarian): 35 µM | GI50 (T-47D breast): 10.4 µM | TGI (T-47D breast): 22.3 µM
